Here are results for two molecules from US20190345121A1, “PYRENE-BASED COMPOUNDS FOR INTRACELLULAR ORGANELLE IMAGING APPLICATIONS” (priority 2018, published 2019).

The conditions of data set [1]: in the presence of DNA in Tris buffer; cited from earlier work.
The subject of another data set is DNA. Kind of data set: Fluorescence titration with DNA in PBS buffer. Format: binding. To be noted: PBS buffer pH=7.4, DNA <25 μg mL^−1. An excerpt:
The pyrene segment of the pyrene-based compounds having a pyridinium group of the present invention is thought to play an important role in the interaction of probes made with the pyrene-based compounds having a pyridinium group of the present invention with DNA, as planar aromatic compounds are usually regarded as DNA intercalators. In order to shed some light on the interaction between probes made from the pyrene-based compounds having a pyridinium group of the present invention and DNA, fluorescence spectra were acquired when DNA was added into probes made from the pyrene-based compounds having a pyridinium group of the present invention in a PBS buffer solution (pH=7.4). […] Therefore, the initial fluorescence quenching was attributed to the interaction between probes made from the pyrene-based compounds having a pyridinium group of the present invention and DNA, possibly involving insertion of dye molecules into DNA groves.

Another data set relates to A549 cells. Nature of the data set: Long-term imaging ability. Format: cell-based, human. Here is the method: For the long-term imaging ability assessment aspect of the experiment, a Zeiss LSM 710 fluorescence confocal microscope with identical settings were used for photostability comparisons of the probes (561 nm (15 mW) laser line; Laser power percentage 1.0; Digital zoom=1; Pinhole=1A U; Master Gain=500; Digital offset=0). Different imaging plates with A549 cells were incubated for 30 minutes at […] with probes made using solutions of the pyrene-based compounds having a benzothiazolium group of the present invention as well as with probes made from LysoTracker® Red DND-99. Fluorescence confocal microscopy images were obtained at 30-minute intervals (identical fluorescence microscopy settings were used during the experiments). ImageJ (NIH) software was used to analyze the obtained images and average relative fluorescence intensity was plotted as a function of time.
The lack of cellular pH perturbation, in addition to its low toxicity, raised the possibility of using the pyrene-based compounds having a benzothiazolium group of the present invention for long term lysosome imaging. Thus, A549 cells were treated with a pyrene-based compound having a benzothiazolium group of the present invention (500 nM) over a period of 6 hours, which gave stable fluorescent confocal microscopy images as shown in FIG. 4A. […]

For `CN(C)CCNc1ccc(O)c2c1C(=O)c1c(O)ccc(NCCN(C)C)c1C2=O` [DRAQ5], the “fluorescence quantum yield ϕfl” value in data set [1] is recorded as “about 0.003”. The “fluorescence change on initial addition of DNA” value with DNA is given as “partial fluorescence quenching”.

In the case of `CN(C)CCNC(=O)CCc1ccc2n1[B-](F)(F)[N+]1=C(c3ccc[nH]3)C=CC1=C2` [LysoTracker® Red DND-99], the “cell morphology during long-term imaging” value with A549 cells (after 1.5 hours) is “significant morphological changes and notable cell shrinkage”. Further, the “average fluorescence intensity vs. staining time” value in the data set with A549 cells (images every 30 minutes) was “significant decrease in relative intensity”.
